Consider 3 molecules from US20110152313A1 (MACQUARIE UNIVERSITY, priority 2008, published 2011).

Experiment in all cases: kinase binding screen (kinase-tagged T7 phage, qPCR), % Ctrl
(Quantitative PCR measures a nucleic acid by following its amplification.)

The target of assay [1] is CAMK2D (Homo sapiens, UniProt Q13557). The protocol:
(§1) Percentage kinase inhibition at a set concentration was performed by methods well known in the prior art (Fabian, M. A. et al. Nat. Biotechnol. 2005, 23, 329; Karaman et al. (2008) Nat. Biotechnol. […], 26, 127). Briefly, kinase-tagged T7 phage strains were grown in parallel in 24-well blocks in an E. coli host derived from the BL21 strain. E. coli were grown to log-phase and infected with T7 phage from a frozen stock (multiplicity of infection=0.4) and incubated with shaking at 32° C. until lysis (90-150 minutes). The lysates were centrifuged (6,000×g) and filtered (0.2 μm) to remove cell debris. […] The liganded beads were blocked with excess biotin and washed with blocking buffer (SeaBlock (Pierce); 1% BSA, 0.05% Tween 20, 1 mM DTT) to remove unbound ligand and to reduce non-specific phage binding. […] Test compounds were prepared as 40× stocks in 100% DMSO and directly diluted into the assay. All reactions were performed in polypropylene 384-well plates in a final volume of 0.04 mL. […] The kinase concentration in the eluates was measured by qPCR.

Assay [2] deals with T1, ULK1 (Homo sapiens, UniProt O75385).
T1 sequence (O75385 1-1050): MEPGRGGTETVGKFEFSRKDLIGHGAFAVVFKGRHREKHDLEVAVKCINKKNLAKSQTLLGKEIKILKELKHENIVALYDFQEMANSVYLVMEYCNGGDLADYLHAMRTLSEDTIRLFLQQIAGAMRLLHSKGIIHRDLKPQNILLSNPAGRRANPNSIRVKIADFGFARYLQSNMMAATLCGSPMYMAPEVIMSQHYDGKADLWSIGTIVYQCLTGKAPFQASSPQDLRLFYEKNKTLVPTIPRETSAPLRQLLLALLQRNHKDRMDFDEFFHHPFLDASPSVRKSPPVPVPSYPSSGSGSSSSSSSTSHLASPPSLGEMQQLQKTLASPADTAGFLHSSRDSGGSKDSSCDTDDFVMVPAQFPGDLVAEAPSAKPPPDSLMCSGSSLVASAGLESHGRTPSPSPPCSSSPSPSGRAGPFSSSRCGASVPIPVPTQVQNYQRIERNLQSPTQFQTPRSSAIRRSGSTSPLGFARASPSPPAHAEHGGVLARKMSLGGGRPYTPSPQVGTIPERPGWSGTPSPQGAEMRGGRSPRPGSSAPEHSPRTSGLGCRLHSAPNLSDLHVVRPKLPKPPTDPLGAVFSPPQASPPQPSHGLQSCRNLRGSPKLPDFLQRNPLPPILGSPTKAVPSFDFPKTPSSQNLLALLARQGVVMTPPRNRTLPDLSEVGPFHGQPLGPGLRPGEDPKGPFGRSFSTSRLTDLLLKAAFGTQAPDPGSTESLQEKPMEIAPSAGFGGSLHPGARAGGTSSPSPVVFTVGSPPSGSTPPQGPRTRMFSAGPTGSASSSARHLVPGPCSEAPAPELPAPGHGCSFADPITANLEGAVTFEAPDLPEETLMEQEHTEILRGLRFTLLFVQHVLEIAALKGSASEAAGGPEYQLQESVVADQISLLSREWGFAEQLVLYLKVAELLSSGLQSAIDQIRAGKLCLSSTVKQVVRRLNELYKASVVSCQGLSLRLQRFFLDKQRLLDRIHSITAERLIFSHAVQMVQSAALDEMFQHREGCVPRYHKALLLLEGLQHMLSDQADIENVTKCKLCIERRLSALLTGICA
The protocol: as §1

Assay [3] has as its target T2, YSK4 (Homo sapiens, UniProt Q56UN5).
T2 sequence (Q56UN5 1-1328): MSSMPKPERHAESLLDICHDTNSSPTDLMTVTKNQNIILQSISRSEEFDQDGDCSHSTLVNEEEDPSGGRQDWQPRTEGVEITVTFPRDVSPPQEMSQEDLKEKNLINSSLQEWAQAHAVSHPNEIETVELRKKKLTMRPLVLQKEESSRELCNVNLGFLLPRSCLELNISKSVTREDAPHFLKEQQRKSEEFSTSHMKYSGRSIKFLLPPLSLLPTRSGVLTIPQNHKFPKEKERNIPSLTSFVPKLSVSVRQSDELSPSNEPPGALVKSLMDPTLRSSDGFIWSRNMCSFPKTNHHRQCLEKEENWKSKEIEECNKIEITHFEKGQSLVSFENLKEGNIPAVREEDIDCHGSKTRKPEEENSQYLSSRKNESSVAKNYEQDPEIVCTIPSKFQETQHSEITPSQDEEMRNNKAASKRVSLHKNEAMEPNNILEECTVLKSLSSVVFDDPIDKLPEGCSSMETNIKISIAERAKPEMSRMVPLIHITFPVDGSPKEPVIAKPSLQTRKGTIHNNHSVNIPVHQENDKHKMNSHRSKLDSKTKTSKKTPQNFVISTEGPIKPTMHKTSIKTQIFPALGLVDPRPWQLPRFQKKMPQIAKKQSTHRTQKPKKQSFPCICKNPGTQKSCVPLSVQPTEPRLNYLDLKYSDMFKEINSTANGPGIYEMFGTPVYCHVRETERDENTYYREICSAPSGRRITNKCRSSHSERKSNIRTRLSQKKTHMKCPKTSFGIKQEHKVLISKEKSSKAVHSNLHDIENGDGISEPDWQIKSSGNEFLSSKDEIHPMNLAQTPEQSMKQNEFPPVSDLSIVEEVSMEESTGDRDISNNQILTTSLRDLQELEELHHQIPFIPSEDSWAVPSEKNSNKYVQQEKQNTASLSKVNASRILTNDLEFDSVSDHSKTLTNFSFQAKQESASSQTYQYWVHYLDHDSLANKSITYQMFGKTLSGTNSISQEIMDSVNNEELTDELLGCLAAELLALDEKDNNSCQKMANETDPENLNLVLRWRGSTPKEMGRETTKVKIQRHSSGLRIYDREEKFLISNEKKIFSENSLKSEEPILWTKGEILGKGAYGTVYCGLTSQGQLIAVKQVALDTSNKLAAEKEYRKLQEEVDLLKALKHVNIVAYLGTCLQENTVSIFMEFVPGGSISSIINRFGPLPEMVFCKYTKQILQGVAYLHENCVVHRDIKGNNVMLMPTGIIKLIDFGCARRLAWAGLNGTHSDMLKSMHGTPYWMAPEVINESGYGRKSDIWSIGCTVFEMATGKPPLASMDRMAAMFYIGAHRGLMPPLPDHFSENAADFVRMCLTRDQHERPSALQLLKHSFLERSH
Here is the method: as §1

Structures are written as SMILES.

CAMK2D, sequence (Q13557 whole entry): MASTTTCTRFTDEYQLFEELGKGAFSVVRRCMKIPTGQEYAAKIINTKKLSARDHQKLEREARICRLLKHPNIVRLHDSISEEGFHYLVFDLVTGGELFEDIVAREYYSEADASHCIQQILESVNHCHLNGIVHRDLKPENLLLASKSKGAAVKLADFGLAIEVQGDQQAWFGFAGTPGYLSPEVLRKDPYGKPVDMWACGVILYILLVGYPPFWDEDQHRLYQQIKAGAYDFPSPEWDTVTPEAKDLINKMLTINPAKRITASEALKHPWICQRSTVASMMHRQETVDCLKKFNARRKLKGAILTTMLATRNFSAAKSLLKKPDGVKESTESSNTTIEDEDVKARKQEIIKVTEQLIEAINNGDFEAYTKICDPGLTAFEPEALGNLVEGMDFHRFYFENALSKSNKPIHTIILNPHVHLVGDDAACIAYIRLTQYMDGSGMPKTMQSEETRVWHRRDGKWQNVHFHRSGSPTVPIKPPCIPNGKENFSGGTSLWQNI

Consider `Nc1nc2c(-c3ccccn3)nccc2[nH]1` [drawing 35, 4-(pyrid-2-yl)-1H-imidazo[4,5-c]pyridin-2-amine], for which the remaining activity – broadly, the activity still measured, relative to the control – at 1 µM turned out to be 41% in assay [1], 33% in assay [2] and 16% in assay [3].

With `Nc1nc2c(-c3cnc4ccccc4c3)nccc2[nH]1` [drawing 36, 4-(quinolin-3-yl)-1H-imidazo[4,5-c]pyridin-2-amine], the remaining activity at 1 µM in assay [1] turned out to be 100%; in assay [2] it was 91%; in assay [3], 82%.

Consider `Nc1nc2c(-c3cc(Br)c(Br)[nH]3)nccc2[nH]1` [Ageladine A, ageladine A, reference compound], for which the remaining activity at 1 µM in assay [1] stood at 100%; in assay [2] it was 62%; in assay [3], 56%. Further, the remaining activity at 10 µM came out at 82% in assay [1] (10 μM), 20% in assay [2] (10 μM) and 5.1% in assay [3] (10 μM).
